Data: patent US7507813B2, “Amorphous cefuroxime axetil and preparation process therefore” (Nanomaterials Technology Pte Ltd., priority 2004, dated 2009)

Experiment: Particle size of the cefuroxime axetil particles (SEM images)
Assay type: physicochemical
Details: amorphous particles from antisolvent precipitation

| SMILES | average particle size |
| --- | --- |
| CO/N=C(\C(=O)N[C@@H]1C(=O)N2C(C(=O)OC(C)OC(C)=O)=C(COC(N)=O)CS[C@H]12)c1ccco1 (some centres unmarked) [Example 4, cefuroxime axetil] | about 400 nm |
| CO/N=C(\C(=O)N[C@@H]1C(=O)N2C(C(=O)OC(C)OC(C)=O)=C(COC(N)=O)CS[C@H]12)c1ccco1 (some centres unmarked) [Example 6, cefuroxime axetil] | about 1 μm |
| CO/N=C(\C(=O)N[C@@H]1C(=O)N2C(C(=O)OC(C)OC(C)=O)=C(COC(N)=O)CS[C@H]12)c1ccco1 (some centres unmarked) [Example 5, cefuroxime axetil] | about 200 nm |
| CO/N=C(\C(=O)N[C@@H]1C(=O)N2C(C(=O)OC(C)OC(C)=O)=C(COC(N)=O)CS[C@H]12)c1ccco1 (some centres unmarked) [Example 7, cefuroxime axetil] | about 500 nm |
| CO/N=C(\C(=O)N[C@@H]1C(=O)N2C(C(=O)OC(C)OC(C)=O)=C(COC(N)=O)CS[C@H]12)c1ccco1 (some centres unmarked) [Example 3, cefuroxime axetil] | about 1 μm |
| CO/N=C(\C(=O)N[C@@H]1C(=O)N2C(C(=O)OC(C)OC(C)=O)=C(COC(N)=O)CS[C@H]12)c1ccco1 (some centres unmarked) [Example 11, cefuroxime axetil] | about 1 μm |
| CO/N=C(\C(=O)N[C@@H]1C(=O)N2C(C(=O)OC(C)OC(C)=O)=C(COC(N)=O)CS[C@H]12)c1ccco1 (some centres unmarked) [Example 8, cefuroxime axetil] | about 2 μm |
| CO/N=C(\C(=O)N[C@@H]1C(=O)N2C(C(=O)OC(C)OC(C)=O)=C(COC(N)=O)CS[C@H]12)c1ccco1 (some centres unmarked) [Example 1, cefuroxime axetil] | about 500 nm |
| CO/N=C(\C(=O)N[C@@H]1C(=O)N2C(C(=O)OC(C)OC(C)=O)=C(COC(N)=O)CS[C@H]12)c1ccco1 (some centres unmarked) [Example 10, cefuroxime axetil] | about 600 nm |
| CO/N=C(\C(=O)N[C@@H]1C(=O)N2C(C(=O)OC(C)OC(C)=O)=C(COC(N)=O)CS[C@H]12)c1ccco1 (some centres unmarked) [Example 2, cefuroxime axetil] | about 600 nm |
| CO/N=C(\C(=O)N[C@@H]1C(=O)N2C(C(=O)OC(C)OC(C)=O)=C(COC(N)=O)CS[C@H]12)c1ccco1 (some centres unmarked) [Example 9, cefuroxime axetil] | about 500 nm |
